Laboratory results taken from article PMC9138102, “The Role of ZIP9 and Androgen Receptor in the Establishment of Tight Junctions between Adult Rat Sertoli Cells” (Biology, 2022).
Like-named read-outs stand apart in the source and are kept apart here.

Legend:
CREB/ATF-1 = experiment: p-CREB/p-ATF-1 immunofluorescence in PASC1 cells after AR or ZIP9 silencing; assay type: cell-based, rat; conditions: 10 nM testosterone or 10 µM IAPG, 24 h, n = 3 × 25
JAM-3-specific mRNA = experiment: JAM-3 mRNA expression in PASC1 cells, qRT-PCR; assay type: cell-based, rat; conditions: 10 nM testosterone or 10 µM IAPG, 24 h, n = 3 × 2
Method: Primers were designed with http://www.ncbi.nlm.nih.gov/tools/primer-blast (Accessed on 28 February 2022) and were all intron-spanning. Total RNA was isolated from PASC1 with the RNeasy Mini-Kit (Qiagen, Hilden, Germany) and subjected to DNase I treatment as described by the manufacturer. The Reverse Transcription-System first strand cDNA synthesis kit (Invitrogen, Darmstadt, Germany) was used for cDNA synthesis, as recommended. Quantitative real-time PCR (qRT-PCR) amplification was performed in duplicate with iQ TM SYBR Green Super-mix (Bio-Rad; Munich; Germany) on the iCycler iQ System (Bio-Rad). After an initial heating at 94 °C for 5 min, 40 amplification cycles were performed consisting of an initial denaturation of the DNA double strands at 94 °C for 14 s, an annealing phase of the primers at 59 °C for 30 s, and extension of the primers for 15 s at 72 °C. A finalizing extension at 72 °C was carried out for 10 min. Gene expression was measured after reaching the ct value and calculated using the Delta–Delta Ct method. Detection of GAPDH-specific mRNA/cDNA served as normalization of the quantification. Oligonucleotides used in the qRT-PCR, their annealing position, and the expected size of the amplificates are listed in Supplementary Table S2.
(§1) For silencing ZIP9 or AR expression, PASC1 cells were treated with commercially available siRNA directed against the expression of ZIP9 or the AR by following the manufacturer’s protocol (Silencer ® Select, siRNA Invitrogen, Darmstadt, Germany). The following oligonucleotides were used: 5′ […]tt3′ and 5′ […]ta 3′ (ZIP9-siRNA for ZIP9 silencing) and 5′[…]tt3′ plus 5′ […]ag 3′ (AR-siRNA for AR silencing). Negative control siRNA (nc-siRNA) was provided in the siRNA kit from the same manufacturer. After incubation of PASC1 for 48 h with ZIP9-siRNA, AR-siRNA, or nc-siRNA, preparation of samples for qRT-PCR, TER measurement, or immunofluorescence experiments were carried out as described above.

[1] = exogenous testosterone; cited from earlier work
Erk1/2 = tested on: Erk1/2; set-up: method as in PMID 35053053; conditions: Sertoli cell line 93RS2, cited from earlier work
Description: Activation of Erk1/2 by phosphorylation occurs in the so-called non-classical signaling pathway of testosterone.

Sertoli cell line 93RS2 = conditions: 93RS2 cells; ZIP9-mediated; cited from earlier work
Description: The testosterone receptor responsible for the stimulation of the expression of TJ proteins and the formation of the BTB, however, remains to be defined. The classical androgen receptor (AR) has for decades been undisputed as the mediator of all testosterone effects, including the stimulation of TJ formation at the BTB; however, recent investigations have challenged this assumption. ZIP9, a rather recently identified membrane-bound androgen receptor and zinc transporter from the family of ZRT/IRT-like proteins (ZRT = zinc-regulated transporter; IRT = iron-regulated transporter) ...

ZO-1 = ZO-1 expression in PASC1 cells, immunofluorescence; assay type: cell-based, rat; conditions: 10 nM testosterone or 10 µM IAPG, 24 h, n = 3 × 25
Method: PASC1 cells were plated at a density of 3.0 × 10^4 on 24-well plates (1 mL/well) and incubated 48 h at 37 °C and 5% CO2 until a confluence of roughly 80% was reached. […] Cells were then washed with DPBS three times for 5 min, and then incubated in blocking solution (PBS with 3% BSA and 0.3% Triton X-100, both from Sigma-Aldrich) for 1 h at room temperature. The blocking solution was replaced by fresh blocking solution containing the primary antibodies for detection of either AR, p-Erk1/2, p-CREB/p-ATF-1, claudin-1 (Cldn-1), or zonula occludens-1 (ZO-1) (Supplementary Table S1) and incubated overnight at 4 °C. Cells were washed 3 times with DPBS for 3 min each at RT on an orbital shaker, freshly made blocking solution with the appropriate Alexafluor 488-conjugated donkey anti-rabbit secondary antibody was added for 1 h at room temperature on an orbital shaker. After washing 3 times with DPBS, images were obtained using an inverse Olympus IX81 microscope equipped with a fluorescence system. […] The data obtained were analyzed by GraphPad Prism5 (GraphPad Software, Inc., La Jolla, CA, USA).
as §1

C[C@]12CC[C@H]3[C@@H](CCC4=CC(=O)CC[C@@]43C)[C@@H]1CC[C@@H]2O [testosterone]
CREB/ATF-1 phosphorylation (CREB/ATF-1; AR-siRNA): to the same extent as cells treated with nc-siRNA | CREB/ATF-1 phosphorylation (CREB/ATF-1; ZIP9-siRNA): failed to stimulate phosphorylation of CREB/ATF-1 | CREB/ATF-1 phosphorylation (CREB/ATF-1; nc-siRNA): stimulated CREB/ATF-1 phosphorylation | JAM-3 mRNA expression (JAM-3-specific mRNA; AR-siRNA): upregulated | JAM-3 mRNA expression (JAM-3-specific mRNA; ZIP9-siRNA): remained at basal levels | JAM-3 mRNA expression (JAM-3-specific mRNA; nc-siRNA): upregulated | Effect on hypothalamic–pituitary–gonadal axis hormones [1]: prevents GnRH release from the hypothalamus and FSH and LH from the pituitary, leading to the impairment of testosterone production in Leydig cells | Effect on male fertility [1]: unfavorably affects male fertility | Germ cell production [1]: germ cell production under these conditions is halted | Severe side effects [1]: polycythemia, cardiac hypertrophy, and myocardial infarction | Concentration for maximum Erk1/2 phosphorylation (Erk1/2; testosterone): 0.01 µM | Expression of claudin-1 and claudin-5 (Sertoli cell line 93RS2): increased expression of claudin-1 and claudin-5 | TJ formation (Sertoli cell line 93RS2): enhanced TJ formation | Stimulated ZO-1 fluorescence, nc-siRNA versus AR-siRNA (ZO-1): not significantly different | ZO-1 expression (fluorescence signal) (ZO-1; ZIP9-siRNA): The ZO-1 fluorescence was unchanged by the ligands | ZO-1 expression (fluorescence signal) (ZO-1; nc-siRNA): the ZO-1-corresponding signal was significantly intensified

IAPG
CREB/ATF-1 phosphorylation (CREB/ATF-1; AR-siRNA): to the same extent as cells treated with nc-siRNA | CREB/ATF-1 phosphorylation (CREB/ATF-1; ZIP9-siRNA): failed to stimulate phosphorylation of CREB/ATF-1 | CREB/ATF-1 phosphorylation (CREB/ATF-1; nc-siRNA): stimulated CREB/ATF-1 phosphorylation | JAM-3 mRNA expression (JAM-3-specific mRNA; AR-siRNA): upregulated | JAM-3 mRNA expression (JAM-3-specific mRNA; ZIP9-siRNA): remained at basal levels | JAM-3 mRNA expression (JAM-3-specific mRNA; nc-siRNA): upregulated | Concentration for maximum Erk1/2 phosphorylation (Erk1/2; IAPG): 10 µM | Stimulated ZO-1 fluorescence, nc-siRNA versus AR-siRNA (ZO-1): not significantly different | ZO-1 expression (fluorescence signal) (ZO-1; ZIP9-siRNA): The ZO-1 fluorescence was unchanged by the ligands | ZO-1 expression (fluorescence signal) (ZO-1; nc-siRNA): the ZO-1-corresponding signal was significantly intensified
